# From the supplement of paper PMC10307832
# Experiments:
# Experiment in all cases: relative viability (nuclei count vs DMSO), 5 days (fraction); higher = more cells survive
# Gemcitabine + Decitabine = compound: Nc1ccn([C@@H]2O[C@H](CO)[C@@H](O)C2(F)F)c(=O)n1 [Gemcitabine] + Nc1ncn([C@H]2C[C@H](O)[C@@H](CO)O2)c(=O)n1 [Decitabine] (partner 2 µM)
# Procedure, shortened: (§1)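 Relative viability is defined as nuclei in treated wells over nuclei in vehicle wells. Duplicate plates were run and medians reported. Lung cancer cell lines in 1536-well plates were dosed by pin tool one day after seeding, with one drug or with a fixed anchor-drug dose plus five library-drug doses (not always all listed) in √10 steps, and nuclei were counted after 5 days.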
# Gemcitabine + Tozasertib = compound: Nc1ccn([C@@H]2O[C@H](CO)[C@@H](O)C2(F)F)c(=O)n1 [Gemcitabine] + Cc1cc(Nc2cc(N3CCN(C)CC3)nc(Sc3ccc(NC(=O)C4CC4)cc3)n2)n[nH]1 [Tozasertib] (partner 0.1 µM)
# Procedure, shortened: as §1
# Gemcitabine + Lapatinib = compound: Nc1ccn([C@@H]2O[C@H](CO)[C@@H](O)C2(F)F)c(=O)n1 [Gemcitabine] + CS(=O)(=O)CCNCc1ccc(-c2ccc3ncnc(Nc4ccc(OCc5cccc(F)c5)c(Cl)c4)c3c2)o1 [Lapatinib] (partner 2 µM)
# Procedure, shortened: as §1
# Gemcitabine + Crizotinib = compound: Nc1ccn([C@@H]2O[C@H](CO)[C@@H](O)C2(F)F)c(=O)n1 [Gemcitabine] + C[C@@H](Oc1cc(-c2cnn(C3CCNCC3)c2)cnc1N)c1c(Cl)ccc(F)c1Cl [Crizotinib] (partner 1 µM)
# Procedure, shortened: as §1
Cell Line,relative viability (Gemcitabine + Decitabine; first compound 0.001 µM),relative viability (Gemcitabine + Decitabine; first compound 0.003162 µM),relative viability (Gemcitabine + Decitabine; first compound 0.01 µM),relative viability (Gemcitabine + Decitabine; first compound 0.03162 µM),relative viability (Gemcitabine + Decitabine; first compound 0.1 µM),relative viability (Gemcitabine + Tozasertib; first compound 0.001 µM),relative viability (Gemcitabine + Tozasertib; first compound 0.003162 µM),relative viability (Gemcitabine + Tozasertib; first compound 0.01 µM),relative viability (Gemcitabine + Tozasertib; first compound 0.03162 µM),relative viability (Gemcitabine + Tozasertib; first compound 0.1 µM),relative viability (Gemcitabine + Lapatinib; first compound 0.001 µM),relative viability (Gemcitabine + Lapatinib; first compound 0.003162 µM),relative viability (Gemcitabine + Lapatinib; first compound 0.01 µM),relative viability (Gemcitabine + Lapatinib; first compound 0.03162 µM),relative viability (Gemcitabine + Lapatinib; first compound 0.1 µM),relative viability (Gemcitabine + Crizotinib; first compound 0.001 µM),relative viability (Gemcitabine + Crizotinib; first compound 0.003162 µM),relative viability (Gemcitabine + Crizotinib; first compound 0.01 µM),relative viability (Gemcitabine + Crizotinib; first compound 0.03162 µM),relative viability (Gemcitabine + Crizotinib; first compound 0.1 µM)
NCI-H2126,0.604,0.546,0.546,0.423,0.299,0.866,0.802,0.756,0.471,0.245,0.704,0.764,0.738,0.615,0.394,1.04,0.999,0.968,0.644,0.41
NCI-H2170,0.457,0.455,0.349,0.201,0.126,0.824,0.735,0.469,0.154,0.134,0.282,0.271,0.244,0.197,0.185,1.39,1.23,0.615,0.161,0.155
NCI-H2347,0.537,0.645,0.58,0.478,0.539,0.563,0.547,0.484,0.29,0.259,0.952,0.896,0.646,0.655,0.467,0.756,0.704,0.623,0.452,0.477
NCI-H2405,0.735,0.676,0.427,0.31,0.226,0.812,0.709,0.495,0.221,0.216,1.03,0.445,0.362,0.243,0.162,0.846,0.775,0.564,0.245,0.22
NCI-H3122,0.361,0.396,0.389,0.175,0.146,0.428,0.365,0.222,0.106,0.0862,1.02,1.04,0.926,0.476,0.243,0.306,0.27,0.253,0.135,0.119
PC-3 [JPC-3],0.935,0.573,0.602,0.524,0.465,0.902,0.796,0.666,0.264,0.237,0.468,0.416,0.424,0.278,0.266,1,0.838,0.611,0.295,0.246
PC-14,0.217,0.0953,0.0507,0.0388,0.0405,0.579,0.275,0.078,0.0297,0.0356,0.323,0.234,0.203,0.0925,0.0562,0.903,0.569,0.308,0.0832,0.0612
RERF-LC-KJ,0.831,0.701,0.636,0.529,0.324,0.596,0.543,0.578,0.323,0.229,0.858,0.821,0.89,0.909,0.407,0.901,0.866,0.844,0.73,0.252
SK-LU-1,0.623,0.635,0.376,0.24,0.246,0.303,0.207,0.131,0.145,0.14,0.89,0.509,0.162,0.134,0.195,1.02,0.364,0.258,0.208,0.252
SK-MES-1,0.387,0.264,0.168,0.172,0.152,0.691,0.305,0.197,0.147,0.126,0.499,0.468,0.295,0.201,0.203,0.923,0.809,0.221,0.179,0.164
SW 1573,0.529,0.158,0.113,0.0711,0.0511,0.189,0.165,0.0964,0.0589,0.0466,1.07,0.994,0.681,0.148,0.082,0.997,0.728,0.202,0.12,0.0565
UMC-11,0.57,0.417,0.518,0.37,0.311,0.197,0.162,0.221,0.211,0.215,1.04,1.06,0.98,0.879,0.208,0.746,0.574,0.598,0.549,0.233
